Reference: patent US8278345B2, “Inhibitors of glutaminyl cyclase” (Probiodrug AG, priority 2006, dated 2012)
Like-named read-outs stand apart in the source and are kept apart here.

Target: hQC (Homo sapiens, UniProt Q16769)
Assay: Inhibitor assay for glutaminyl cyclase activity (fluorometric, H-Gln-βNA / H-Gln-AMC)
Assay type: biochemical
Outline: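 Coupled fluorometric assay at 30 °C with pyroglutamyl aminopeptidase, in Tris/HCl pH 8.0 with EDTA, substrate H-Gln-βNA (0.2 mM; ex/em 320/410 nm) or H-Gln-AMC (ex/em 380/460 nm), initiated by QC. Screening: 4 mM inhibitor, substrate at 1 KM; Ki from progress curves fitted to competitive inhibition.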

[1] = compound from preparative synthesis, purified, read-out: IC50 hQC

Chain of hQC (Q16769 29-361): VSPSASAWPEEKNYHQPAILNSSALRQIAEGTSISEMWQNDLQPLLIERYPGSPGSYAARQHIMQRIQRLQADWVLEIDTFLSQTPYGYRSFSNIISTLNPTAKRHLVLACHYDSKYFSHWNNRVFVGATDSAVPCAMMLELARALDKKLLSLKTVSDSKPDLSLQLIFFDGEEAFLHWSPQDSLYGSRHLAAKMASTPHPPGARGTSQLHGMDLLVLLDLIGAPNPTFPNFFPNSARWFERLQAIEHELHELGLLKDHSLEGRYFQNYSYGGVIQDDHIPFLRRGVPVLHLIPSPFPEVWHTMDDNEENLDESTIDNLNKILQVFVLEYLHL

SMILES	IC50 (read-out: IC50)	IC50 [1]
O=C1C(O)=C(c2ccccc2)C(c2ccccn2)N1CCCn1ccnc1 (stereo not drawn) [Compound 101, 3-Hydroxy-1-(3-imidazol-1-yl-propyl)-4-phenyl-5-pyridin-2-yl-1,5-dihydro-pyrrol-2-one]	400 nM	
O=C1C(O)=C(c2ccccc2)C(c2ccncc2)N1CCCn1ccnc1 (stereo not drawn) [Compound 102, 3-Hydroxy-1-(3-imidazol-1-yl-propyl)-4-phenyl-5-pyridin-4-yl-1,5-dihydro-pyrrol-2-one]	8500 nM	
O=C1C(O)=C(c2ccccc2)C(c2cccs2)N1CCCn1ccnc1 (stereo not drawn) [Compound 103, 3-Hydroxy-1-(3-imidazol-1-yl-propyl)-4-phenyl-5-thiophen-2-yl-1,5-dihydro-pyrrol-2-one]	1300 nM	
O=C1C(O)=C(c2ccccc2)C(CO)N1CCCn1ccnc1 (stereo not drawn) [Compound 104, 3-Hydroxy-5-hydroxymethyl-1-(3-imidazol-1-yl-propyl)-4-phenyl-1,5-dihydro-pyrrol-2-one]	40 nM	
O=C1C(O)=C(c2ccccc2)C(C2CC2)N1CCCn1ccnc1 (stereo not drawn) [Compound 105, 5-Cyclopropyl-3-hydroxy-1-(3-imidazol-1-yl-propyl)-4-phenyl-1,5-dihydro-pyrrol-2-one]	400 nM	
O=C1C(O)=C(c2ccccc2)C(c2ccco2)N1CCCn1ccnc1 (stereo not drawn) [Compound 106, 5-Furan-2-yl-3-hydroxy-1-(3-imidazol-1-yl-propyl)-4-phenyl-1,5-dihydro-pyrrol-2-one]	40 nM	
CCCCC1C(c2ccccc2)=C(O)C(=O)N1CCCn1ccnc1 (stereo not drawn) [Compound 107, 5-Butyl-3-hydroxy-1-(3-imidazol-1-yl-propyl)-4-phenyl-1,5-dihydro-pyrrol-2-one]	40 nM	524 nM
CCC1C(c2ccccc2)=C(O)C(=O)N1CCCn1ccnc1 (stereo not drawn) [Compound 108, 5-Ethyl-3-hydroxy-1-(3-imidazol-1-yl-propyl)-4-phenyl-1,5-dihydro-pyrrol-2-one]	400 nM	
O=C1C(O)=C(c2ccccc2)C(c2cccc(Cl)c2)N1CCCn1ccnc1 (stereo not drawn) [Compound 109, 5-(3-Chloro-phenyl)-3-hydroxy-1-(3-imidazol-1-yl-propyl)-4-phenyl-1,5-dihydro-pyrrol-2-one]	400 nM	
O=C1C(O)=C(c2ccccc2)C(c2ccccc2F)N1CCCn1ccnc1 (stereo not drawn) [Compound 110, 5-(2-Fluoro-phenyl)-3-hydroxy-1-(3-imidazol-1-yl-propyl)-4-phenyl-1,5-dihydro-pyrrol-2-one]	40 nM	740 nM
O=C1C(O)=C(c2ccccc2)C(c2ccc(O)cc2)N1CCCn1ccnc1 (stereo not drawn) [Compound 111, 3-Hydroxy-5-(4-hydroxy-phenyl)-1-(3-imidazol-1-yl-propyl)-4-phenyl-1,5-dihydro-pyrrol-2-one]	400 nM	
O=C1C(O)=C(c2ccccc2)C(c2cccc(O)c2)N1CCCn1ccnc1 (stereo not drawn) [Compound 112, 3-Hydroxy-5-(3-hydroxy-phenyl)-1-(3-imidazol-1-yl-propyl)-4-phenyl-1,5-dihydro-pyrrol-2-one]	400 nM	1960 nM
O=C1C(O)=C(c2c[nH]c3ccccc23)C(C(O)CO)N1CCCn1ccnc1 (stereo not drawn) [Compound 117, 5-(1,2-Dihydroxy-ethyl)-3-hydroxy-1-(3-imidazol-1-yl-propyl)-4-(1H-indol-3-yl)-1,5-dihydro-pyrrol-2-one]	400 nM	
CC(C)/C=C/C1C(c2c[nH]c3ccccc23)=C(O)C(=O)N1CCCn1ccnc1 (stereo not drawn) [Compound 118, 3-Hydroxy-1-(3-imidazol-1-yl-propyl)-4-(1H-indol-3-yl)-5-(3-methyl-but-1-enyl)-1,5-dihydro-pyrrol-2-one]	1300 nM	
CCCCCC1C(c2c[nH]c3ccccc23)=C(O)C(=O)N1CCCn1ccnc1 (stereo not drawn) [Compound 124, 3-Hydroxy-1-(3-imidazol-1-yl-propyl)-4-(1H-indol-3-yl)-5-pentyl-1,5-dihydro-pyrrol-2-one]	400 nM	

The remaining lines, values ahead:

IC50 (read-out: IC50)	IC50 [1]	SMILES
1300 nM		O=C1C(O)=C(c2c[nH]c3ccccc23)C(c2cc(Cl)cc(Cl)c2O)N1CCCn1ccnc1 (stereo not drawn) [Compound 113, 5-(3,5-Dichloro-2-hydroxy-phenyl)-3-hydroxy-1-(3-imidazol-1-yl-propyl)-4-(1H-indol-3-yl)-1,5-dihydro-pyrrol-2-one]
40 nM	266 nM	Cc1ccc(C2C(c3c[nH]c4ccccc34)=C(O)C(=O)N2CCCn2ccnc2)cc1 (stereo not drawn) [Compound 114, 3-Hydroxy-1-(3-imidazol-1-yl-propyl)-4-(1H-indol-3-yl)-5-p-tolyl-1,5-dihydro-pyrrol-2-one]
400 nM		CCCC1C(c2c[nH]c3ccccc23)=C(O)C(=O)N1CCCn1ccnc1 (stereo not drawn) [Compound 115, 3-Hydroxy-1-(3-imidazol-1-yl-propyl)-4-(1H-indol-3-yl)-5-propyl-1,5-dihydro-pyrrol-2-one]
400 nM		O=C1C(O)=C(c2c[nH]c3ccccc23)C(c2cc[nH]n2)N1CCCn1ccnc1 (stereo not drawn) [Compound 116, 3-Hydroxy-1-(3-imidazol-1-yl-propyl)-4-(1H-indol-3-yl)-5-(1H-pyrazol-3-yl)-1,5-dihydro-pyrrol-2-one]
400 nM		Cc1ccc(C2C(c3c[nH]c4ccccc34)=C(O)C(=O)N2CCCn2ccnc2)o1 (stereo not drawn) [Compound 119, 3-Hydroxy-1-(3-imidazol-1-yl-propyl)-4-(1H-indol-3-yl)-5-(5-methyl-furan-2-yl)-1,5-dihydro-pyrrol-2-one]
40 nM		O=C1C(O)=C(c2c[nH]c3ccccc23)C(c2ccc3[nH]ccc3c2)N1CCCn1ccnc1 (stereo not drawn) [Compound 120, 3-Hydroxy-1-(3-imidazol-1-yl-propyl)-5-(1H-indol-5-yl)-4-(1H-indol-3-yl)-1,5-dihydro-pyrrol-2-one]
40 nM		COc1ccc(C2C(c3c[nH]c4ccccc34)=C(O)C(=O)N2CCCn2ccnc2)cc1 (stereo not drawn) [Compound 121, 3-Hydroxy-1-(3-imidazol-1-yl-propyl)-4-(1H-indol-3-yl)-5-(4-methoxy-phenyl)-1,5-dihydro-pyrrol-2-one]
40 nM		O=C1C(O)=C(c2c[nH]c3ccccc23)C(c2ccccc2O)N1CCCn1ccnc1 (stereo not drawn) [Compound 122, 3-Hydroxy-5-(2-hydroxy-phenyl)-1-(3-imidazol-1-yl-propyl)-4-(1H-indol-3-yl)-1,5-dihydro-pyrrol-2-one]
40 nM	562 nM	Cc1ccc(C2C(c3c[nH]c4ccccc34)=C(O)C(=O)N2CCCn2ccnc2)cc1C (stereo not drawn) [Compound 123, 5-(3,4-Dimethyl-phenyl)-3-hydroxy-1-(3-imidazol-1-yl-propyl)-4-(1H-indol-3-yl)-1,5-dihydro-pyrrol-2-one]
400 nM		CC1C(c2c[nH]c3ccccc23)=C(O)C(=O)N1CCCn1ccnc1 (stereo not drawn) [Compound 125, 3-Hydroxy-1-(3-imidazol-1-yl-propyl)-4-(1H-indol-3-yl)-5-methyl-1,5-dihydro-pyrrol-2-one]
400 nM		O=C1C(O)=C(c2c[nH]c3ccccc23)C(c2ccc(CO)o2)N1CCCn1ccnc1 (stereo not drawn) [Compound 126, 3-Hydroxy-5-(5-hydroxymethyl-furan-2-yl)-1-(3-imidazol-1-yl-propyl)-4-(1H-indol-3-yl)-1,5-dihydro-pyrrol-2-one]
40 nM	434 nM	O=C1C(O)=C(c2c[nH]c3ccccc23)C(c2ccccc2)N1CCCn1ccnc1 (stereo not drawn) [Compound 127, 3-Hydroxy-1-(3-imidazol-1-yl-propyl)-4-(1H-indol-3-yl)-5-phenyl-1,5-dihydro-pyrrol-2-one]
